These results are taken from patent EP0515159A1, “Ursane derivatives, their preparation and pharmaceutical formulations thereof” (IDB HOLDING S.p.A., priority 1991, dated 1992).

Usually inhibition stands for how much of the control response was suppressed. By % Inhibition is commonly meant the share of the control response that was lost under treatment. The low end stands for a response near the control, the high end for a response far below the control.

Structures can show the parent of a compound that is named as a salt. Where two headings read alike, the source gives them in different places.

The subject of series [1] is alcohol-induced gastric lesions. The series can be described thus: Alcohol-induced ulcer (gastric lesions) in the rat. The series is classed as in vivo. Conditions: for inhibition at 50 mg/kg: dose 50.0 mg/kg os; for inhibition at 100 mg/kg: dose 100.0 mg/kg os; for inhibition at 200 mg/kg: dose 200.0 mg/kg os; for ED50: by mouth, inhibition of alcohol-induced gastric lesions, read-out: ED₅₀ mg/kg and confidence limits (p = 0.95); for ED50 / oral therapeutic indices (LD₅₀/ED₅₀) Alcohol-induced ulcer: rat; for R: potency ratio relative to Carbenoxolone (= 1.0), alcohol-induced lesions; for inhibition at 12.5 mg/kg: dose 12.5 mg/kg os; for oral therapeutic indices (LD₅₀/ED₅₀) Alcohol-induced ulcer: oral LD50 / ED50 in alcohol-induced ulcer; for inhibition at 6.25 mg/kg: dose 6.25 mg/kg os. On the procedure:
The gastric lesions were induced in male Sprague-Dawley rats weighing 120-140 g, which had been fasted for 48 h, by administering 1 ml/rat of 90% alcohol by mouth. One hour after administration of the damage-inducing agent, the animals were sacrifed in an excess of ether and the stomachs opened along the major curvature; the gastric lesions were measured in mm² and expressed as the percentage of inhibition compared with the controls. The substances under investigation, suspended in 0.5% Methocel, were administered by mouth 1 hour before the alcohol.

Series [2] has as its system Diclofenac-induced gastric ulcers. The series can be described thus: Diclofenac-induced ulcer (gastric lesions) in the rat. Conditions: for ED50: by mouth, inhibition of Diclofenac-induced gastric lesions, read-out: ED₅₀ and confidence limits (p = 0.95); for ED50 / oral therapeutic indices (LD₅₀/ED₅₀) Diclofenac-induced ulcer: rat; for % Inhibition: 1 h before 100 mg/kg Diclofenac, sacrifice 5 h after; for R: potency ratio relative to Carbenoxolone (= 1.0), Diclofenac-induced ulcers; for oral therapeutic indices (LD₅₀/ED₅₀) Diclofenac-induced ulcer: oral LD50 / ED50 in Diclofenac-induced ulcer. The series is classed as in vivo. On the procedure:
Female Sprague-Dawley rats weighing 180-200 g that had been fasted for 24 h were used in this experiment. The gastric lesions were induced by a single oral dose of 100 mg/kg Diclofenac.
The animals were sacrificed 5 h after administration of the damage-inducing agent. The gastric lesions were measured in mm² and expressed as a percentage of inhibition.
The substances under investigation, suspended in 0.5% Methocel, were administered by mouth 1 h before the anti-inflammatory agent.

A short description of series [3]: Acute toxicity in the rat. Conditions: in vivo; for LD50 at 14 days: both sexes, Sprague-Dawley; for LD50 at 336 h: 14 days observation. On the procedure:
The acute toxicity of compounds IIa and IIb (M=Na) was evaluated in the rat after oral and intraperitoneal administration.
Each experimental group comprised 5 male and 5 female Sprague-Dawley rats. After being treated, the animals were kept under observation for 14 days and the dose that caused the death of 50% of the animals (LD₅₀) was calculated by the probit method (Finney D J. in "Probit Analysis", Cambridge University Press, 3rd Ed., Cambridge, 1971). The results shown in Table 4 indicate that, after intraperitoneal administration, the toxicity of both compounds is similar to that of the reference product.

Series [4] can be described thus: Antidiuretic activity: effects on urinary excretion in the rat. The series is classed as in vivo. Conditions: for Electrolyte output, mEq/6h/rat K^+ / Electrolyte output, mEq/6h/rat Na^+ / Na^+/K^+ / Urine volume (0-6 h): urine collected 6 hours after fifth dose. On the procedure: The effect of compounds IIa and IIb (M=Na) on urinary excretion was investigated in male Sprague-Dawley rats weighing 180-200 g. […] Carbenoxolone in a dose of 200 mg/kg was used as a reference substance. The animals were fasted for 18 h before the last dose. The urine was collected for 6 hours after administration of the fifth dose and its content of Na⁺ and K⁺ was measured.

[5] abbreviates: Rattus norvegicus, 1 hour before 90% alcohol, lesions in mm² vs controls.
Setting [6] is: 200 mg/kg os once a day for 5 days.
Setting [7] is: ip, intraperitoneal, probit method, read-out: LD50 (confidence limits p = 0.95) mg/kg i.p.
Setting [8] is: oral, 1000 mg/kg (LD10) = maximum dose that could be administered (2 doses of 500 mg/kg 1 h apart), read-out: LD50 (confidence limits p = 0.95) mg/kg p.o.
The mark [9] stands for this setting: 20 mg/kg os once a day for 5 days.

As for `C[C@H]1[C@H](C)CC[C@]2(C(=O)O)CC[C@]3(C)C(=CC=C4[C@@]5(C)CC[C@H](OC(=O)CCC(=O)O)C(C)(C)[C@@H]5CC[C@]43C)[C@H]12` [3β-(carboxy-propionyloxy)-ursa-9(11),12-dien-28-oic acid], in series [1] (setting [5]), the inhibition at 50 mg/kg turned out to be 28.4%, at 100 mg/kg the inhibition was 45.6% and the inhibition at 200 mg/kg came to 76.3%. Further, the inhibition at 400 mg/kg in series [1] (Rattus norvegicus, dose 400.0 mg/kg os, 1 hour before 90% alcohol, lesions in mm² vs controls) is 80.1%. In series [1], the ED50 worked out at 106 mg/kg and the R is 0.8.
With `CC1(C)[C@@H](OC(=O)c2ccccc2C(=O)O)CC[C@]2(C)[C@H]3CC=C4[C@@H]5C[C@@](C)(COC(=O)c6ccccc6C(=O)O)CC[C@]5(C)CC[C@@]4(C)[C@]3(C)CC[C@@H]12` [18β-olean-12-ene-3β,3-0-diol di-0-hemiphthalate], the figures for the ED50 in series [2] and in series [1] were 38.9 mg/kg and 14.6 mg/kg, respectively. For the same molecule, the “% Inhibition” value in series [2] (dose 3.125 mg/kg os) is recorded as 1.5%; in series [2] (dose 6.25 mg/kg os) it was 5.9%; in series [2] (dose 12.5 mg/kg os) it was 21.5%; in series [2] (dose 25.0 mg/kg os), 29.8%. The R in series [2] is 3.5; in series [1] it was 5.6. Besides, in series [1] (Rattus norvegicus, dose 0.8 mg/kg os, 1 hour before 90% alcohol, lesions in mm² vs controls), the inhibition at 0.8 mg/kg worked out at 12%. Moreover, 3.12 mg/kg produced 32% inhibition in series [1] (Rattus norvegicus, dose 3.12 mg/kg os, 1 hour before 90% alcohol, lesions in mm² vs controls). This molecule also displayed an inhibition at 12.5 mg/kg in series [1] (setting [5]) of 40.8%. Testing at 50 mg/kg in series [1] (setting [5]) gave an inhibition of 70.2%.
`CC1(C)[C@@H](OC(=O)CCC(=O)O)CC[C@]2(C)[C@H]3C(=O)C=C4[C@@H]5C[C@@](C)(C(=O)O)CC[C@]5(C)CC[C@@]4(C)[C@]3(C)CC[C@@H]12` [Carbenoxolone, sodium salt of the hemisuccinate of β-glycyrrhetic acid]: in series [2], the ED50 worked out at 140 mg/kg, the “oral therapeutic indices (LD₅₀/ED₅₀) Diclofenac-induced ulcer” value was 22 and the R was 1.0. Besides, the “% Inhibition” value in series [2] (dose 100.0 mg/kg os) is listed as 37.2%. In addition, the “% Inhibition” value in series [2] (dose 150.0 mg/kg os) worked out at 45.6%. In addition, the “% Inhibition” value in series [2] (dose 200.0 mg/kg os) is given as 72.7%. Moreover, the “% Inhibition” value in series [2] (dose 400.0 mg/kg os) came out at 90.9%. For the same molecule, the LD50 at 14 days in series [3] (ip) is 92 mg/kg. This molecule also showed an LD50 at 14 days in series [3] (po) of 3100 mg/kg. In series [1] (setting [5]), this molecule returned an inhibition at 50 mg/kg of 34.9%, an inhibition at 100 mg/kg of 45% and an inhibition at 200 mg/kg of 83%. In series [1], the ED50 was determined as 90.4 mg/kg, the “oral therapeutic indices (LD₅₀/ED₅₀) Alcohol-induced ulcer” value stood at 34 and the R amounted to 1.0. For the same molecule, in series [4] (setting [6]), the “Electrolyte output, mEq/6h/rat K^+” value turned out to be 0.12±0.01 mEq/6h/rat; the “Electrolyte output, mEq/6h/rat Na^+” value is given as 0.10±0.01 mEq/6h/rat; the “Na^+/K^+” value amounted to 0.8; the “Urine volume (0-6 h)” value was 1.5 ± 0.2 mL. Besides, in series [4] (200 mg/kg os once a day for 5 days, listed as carbenoxolone), the “Na^+/K^+” value came out at 0.5. Also, in series [4] (200 mg/kg, versus controls), the reducing diuresis worked out at 67% and the “reduction in the excretion of Na⁺” value is 72%.
Turning to `C[C@H]1[C@H](C)CC[C@]2(COC(=O)c3ccccc3C(=O)O)CC[C@]3(C)C(=CC[C@@H]4[C@@]5(C)CC[C@H](OC(=O)c6ccccc6C(=O)O)C(C)(C)[C@@H]5CC[C@]43C)[C@H]12` [IIa (M = Na), disodium salt of the dihemiphthalate or urs-12-ene-3β,28-diol], in series [2], the ED50 was 7 mg/kg, the “oral therapeutic indices (LD₅₀/ED₅₀) Diclofenac-induced ulcer” value is more than 143 and the R was determined as 16.3. Moreover, the “% Inhibition” value in series [2] (dose 3.125 mg/kg os) is reported as 8.9%. For the same molecule, the “% Inhibition” value in series [2] (dose 6.25 mg/kg os) turned out to be 28.3%. The “% Inhibition” value in series [2] (dose 7.5 mg/kg os) is listed as 62.3%. The “% Inhibition” value in series [2] (dose 9.0 mg/kg os) is reported as 67.9%. Besides, the LD50 at 336 h in series [3] (setting [7]) worked out at 60 mg/kg. Further, the LD50 at 336 h in series [3] (setting [8]) is more than 1000 mg/kg. The same molecule showed an inhibition at 2 mg/kg in series [1] (Rattus norvegicus, dose 2.0 mg/kg os, 1 hour before 90% alcohol, lesions in mm² vs controls) of 16.1%. In series [1] (Rattus norvegicus, dose 2.5 mg/kg os, 1 hour before 90% alcohol, lesions in mm² vs controls), this molecule had an inhibition at 2.5 mg/kg of 22.1%. The molecule further came in with an inhibition at 3.125 mg/kg in series [1] (Rattus norvegicus, dose 3.125 mg/kg os, 1 hour before 90% alcohol, lesions in mm² vs controls) of 65.2%. In addition, the inhibition at 6.25 mg/kg in series [1] (setting [5]) stood at 67.4%. For the same molecule, in series [1], the ED50 is 3.7 mg/kg, the “oral therapeutic indices (LD₅₀/ED₅₀) Alcohol-induced ulcer” value is more than 270 and the R amounted to 25.6. Moreover, in series [4] (setting [9]), the “Electrolyte output, mEq/6h/rat K^+” value is on record as 0.14±0.01 mEq/6h/rat; the “Electrolyte output, mEq/6h/rat Na^+” value is recorded as 0.21±0.01 mEq/6h/rat; the “Na^+/K^+” value was 1.5; the “Urine volume (0-6 h)” value was 3.0 ± 0.2 mL.
Regarding `C[C@H]1[C@H](C)CC[C@]2(COC(=O)c3ccccc3C(=O)O)CC[C@]3(C)C(=CC=C4[C@@]5(C)CC[C@H](OC(=O)c6ccccc6C(=O)O)C(C)(C)[C@@H]5CC[C@]43C)[C@H]12` [IIb (M = Na), disodium salt of the dihemiphthalate of ursa-9(11),12-diene-3β,28-diol], in series [2], the ED50 is 6.4 mg/kg, the “oral therapeutic indices (LD₅₀/ED₅₀) Diclofenac-induced ulcer” value is reported as more than 156 and the R was determined as 17.8. Further, the “% Inhibition” value in series [2] (dose 3.125 mg/kg os) is on record as 37.4%. Moreover, in series [2] (dose 6.25 mg/kg os), the “% Inhibition” value is given as 43.3%. In addition, the “% Inhibition” value in series [2] (dose 12.5 mg/kg os) was found to be 72.0%. The “% Inhibition” value in series [2] (dose 25.0 mg/kg os) came to 73.3%. The LD50 at 336 h in series [3] (setting [7]) worked out at 75 mg/kg. In addition, the LD50 at 336 h in series [3] (setting [8]) is more than 1000 mg/kg. Moreover, in series [1] (setting [5]), the inhibition at 6.25 mg/kg was 10.7% and the inhibition at 12.5 mg/kg came to 32.5%. In series [1] (Rattus norvegicus, dose 16.0 mg/kg os, 1 hour before 90% alcohol, lesions in mm² vs controls), this molecule showed an inhibition at 16 mg/kg of 38.2%. Further, the inhibition at 25 mg/kg in series [1] (Rattus norvegicus, dose 25.0 mg/kg os, 1 hour before 90% alcohol, lesions in mm² vs controls) came to 76.6%. Also, in series [1], the ED50 is 16.8 mg/kg, the “oral therapeutic indices (LD₅₀/ED₅₀) Alcohol-induced ulcer” value is reported as more than 60 and the R is 5.5. Further, in series [4] (setting [9]), the “Electrolyte output, mEq/6h/rat K^+” value worked out at 0.13±0.02 mEq/6h/rat; the “Electrolyte output, mEq/6h/rat Na^+” value was 0.19±0.02 mEq/6h/rat; the “Na^+/K^+” value is recorded as 1.5; the “Urine volume (0-6 h)” value came out at 2.8 ± 0.3 mL.
